Results on four compounds are retold here after patent US7507717B2 (Xenome Ltd., priority 2002, dated 2009).

The target of assay [1] is T1, human noradrenaline transporter (hNET) (Homo sapiens, UniProt P23975).
T1 construct: expressed in transfected cells; host or cells: COS-7 cells (ATCC), transient transfection with metafectene
Description: biochemical. Type of assay: binding. Particulars: Av IC50 Displacement of 3H-nisoxetine from hNET.

Assay [2] has as its target T1, human noradrenaline transporter (hNET). Description: cell-based.

Residues, ends and D or L forms follow the SMILES beside them.

T1 sequence (P23975 whole entry): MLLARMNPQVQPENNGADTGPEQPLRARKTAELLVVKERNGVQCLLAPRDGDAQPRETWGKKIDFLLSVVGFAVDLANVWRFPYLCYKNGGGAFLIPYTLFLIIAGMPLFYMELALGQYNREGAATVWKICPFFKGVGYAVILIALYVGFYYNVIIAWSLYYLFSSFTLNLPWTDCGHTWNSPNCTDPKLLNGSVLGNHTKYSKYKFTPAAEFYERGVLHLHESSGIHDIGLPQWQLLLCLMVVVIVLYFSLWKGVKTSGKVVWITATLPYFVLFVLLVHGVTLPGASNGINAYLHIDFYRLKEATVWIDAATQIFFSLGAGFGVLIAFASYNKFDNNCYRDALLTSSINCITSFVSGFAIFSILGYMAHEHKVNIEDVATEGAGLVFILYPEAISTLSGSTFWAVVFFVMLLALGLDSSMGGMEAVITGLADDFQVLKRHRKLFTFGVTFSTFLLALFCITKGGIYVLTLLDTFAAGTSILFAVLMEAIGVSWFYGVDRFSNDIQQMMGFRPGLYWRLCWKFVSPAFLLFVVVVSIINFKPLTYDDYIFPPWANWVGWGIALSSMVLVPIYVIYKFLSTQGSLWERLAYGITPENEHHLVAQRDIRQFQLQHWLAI

As for `CC(C)C[C@@H]1NC(=O)[C@H](CCCCN)NC(=O)[C@H](Cc2ccc(O)cc2)NC(=O)CNC(=O)[C@@H]2CSSC[C@H](NC1=O)C(=O)N[C@H](C(N)=O)CSSC[C@H](NC(=O)[C@@H](N)C(C)C)C(=O)N2` [compound 148] (HELM PEPTIDE1{V.C.C.G.Y.K.L.C.C.[am]}$PEPTIDE1,PEPTIDE1,2:R3-9:R3|PEPTIDE1,PEPTIDE1,3:R3-8:R3$$$V2.0), the values for the IC50 in assay [1] and in assay [2] were 3160 nM and 347 nM, respectively.

Regarding `CC(C)C[C@@H]1NC(=O)[C@H](CCCCN)NC(=O)[C@H](Cc2ccc(O)cc2)NC(=O)CNC(=O)[C@@H]2CSSC[C@H](NC1=O)C(=O)N[C@@H](CCCNC(=N)N)C(=O)N1CCC[C@H]1C(=O)N[C@H](C(N)=O)CSSC[C@H](NC(=O)[C@@H](NC(=O)CNC(=O)[C@H](CC(N)=O)NC(=O)[C@@H](N)Cc1ccc(O)cc1)C(C)C)C(=O)N2` [compound 89], the concentration for half-maximal inhibition (IC50) was 339 nM in assay [1] and 112 nM in assay [2].

As for `CC(C)C[C@@H]1NC(=O)[C@H](CCCCN)NC(=O)[C@H](Cc2ccc(O)cc2)NC(=O)CNC(=O)[C@@H]2CSSC[C@H](NC1=O)C(=O)N[C@@H](Cc1c[nH]cn1)C(=O)N1CCC[C@H]1C(=O)N[C@H](C(N)=O)CSSC[C@H](NC(=O)[C@@H](NC(=O)CNC(=O)[C@H](CC(N)=O)NC(=O)[C@@H](N)Cc1c[nH]c3ccccc13)C(C)C)C(=O)N2` [compound 82], the concentration for half-maximal inhibition (IC50) in assay [1] is 295 nM; in assay [2] it was 3160 nM.

Regarding `CC(C)C[C@@H]1NC(=O)[C@H](CCCCN)NC(=O)[C@H](Cc2ccc(O)cc2)NC(=O)CNC(=O)[C@@H]2CSSC[C@H](NC1=O)C(=O)N[C@@H](Cc1c[nH]c3ccccc13)C(=O)N1CCC[C@H]1C(=O)N[C@H](C(N)=O)CSSC[C@H](NC(=O)[C@@H](NC(=O)[C@H](CC(=O)O)NC(=O)[C@H](CCCCN)NC(=O)[C@@H](N)Cc1c[nH]c3ccccc13)C(C)C)C(=O)N2` [compound 92] (HELM PEPTIDE1{W.K.D.V.C.C.G.Y.K.L.C.W.P.C.[am]}$PEPTIDE1,PEPTIDE1,5:R3-14:R3|PEPTIDE1,PEPTIDE1,6:R3-11:R3$$$V2.0), the IC50 in assay [1] is 407 nM; in assay [2] it was 36.3 nM.
